Patent US4461724A, “Peptide compounds, a process for manufacturing them, pharmaceutical compositions containing them, and methods for treating ulcer and thrombus with them” (Nippon Zoki Pharmaceutical Co., Ltd., priority 1981, dated 1984)
Square brackets hold non-standard residues; d marks the D form. Peptide text beside a SMILES is read from it. pGlu = O=C1CC[C@@H](C(=O)O)N1

Key:
[1] = tested on: thrombus on silk thread in extracorporeal shunt of rats; assay: Antithrombotic effect (II): extracorporeal shunt with silk thread, thrombus wet weight; format: in vivo, Wister strain male rats; conditions: 20 minute circulation; for Thrombosis wet weight: mean ± S.E., control 38.1 ± 3.4
Method: The present pharmacological test was conducted according to the method by T. Umetsu et al. [Thrombosis and Haemostasis, 39, 74-83 (1978)]. Groups each consisting of 10 Wister strain male rats were anesthetized by intraperitoneal administration of 50 mg/kg of sodium pentobarbital. An extracorporeal shunt prepared by connecting cannula polyethylene tubes to both ends of a polyethylene tube into which a silk thread had been inserted was filled with heparin, the both ends were then inserted into the dissected and exposed left jugular vein and right carotid artery. Thereafter, blood circulation was started. The drug to be tested was intravenously administered one minute before the start of blood circulation. Aspirin was orally administered as a comparative drug. After 20 minute blood circulation, the wet weight of the thrombus coated to the silk thread was weighed, and the inhibition rate was calculated.

[2] = tested on: histamine-induced ulcer in rats; assay: (C) Histamine-induced ulcer inhibiting effect (ID50); format: in vivo; conditions: drug once before histamine 300 mg/kg
Method: 4. […] According to the method by Bucher et al. [ Bucher, F. et al., Beitr. Path. Anat., 81, 391 (1928)], the drug to be tested was intraperitoneally administered to rats once before the oral administration of 300 mg/kg of histamine.

[3] = tested on: aspirin-induced ulcer in rats; assay: (B) Aspirin-induced ulcer inhibiting effect; format: in vivo; conditions: drug once before oral aspirin 200 mg/kg
Method: 4. […] According to the method by Brodie et al. [Brodie, D. A. & Chase, B. J., Gastroenterology, 53, 604 (1967)], the drug to be tested was orally administered to rats once before the oral administration of 200 mg/kg of aspirin.

[4] = tested on: cortisone-induced ulcer in rats; assay: (D) Cortisone-induced ulcer inhibiting effect; format: in vivo; conditions: starved rats, cortisone acetate 20 mg/kg s.c. and drug once a day for 4 days
Method: (§1) The peptide compound of this invention (Compound 25) and cimetidine and atropine both employed as the comparative drugs were intravenously administered.
According to the method by Robert et al. [Robert, A & Nezamis, J. E., Proc. Soc. Exptl. Biol. Med., 99, 443 (1958)], rats were starved, and 20 mg/kg of cortisone acetate was subcutaneously administered once a day for 4 days to induce ulcer. The drug to be tested was also administered simultaneously with the cortisone acetate once a day for 4 days.

[5] = tested on: cysteamine-induced duodenal ulcer in rats; assay: (E) Cysteamine-induced duodenal ulcer inhibiting effect; format: in vivo; conditions: drug once before cysteamine hydrochloride 400 mg/kg
Method: as §1
According to the method by Robert at al. [Robert, H. et al., Digestion, 11, 199 (1974)], 400 mg/kg of cysteamine hydrochloride was administered to rats to induce duodenal ulcer. The drug to be tested was administered once before the administration of the cysteamine.

[6] = tested on: restraint and water immersion stress ulcer in rats; assay: (A) Restraint and water immersion stress ulcer inhibiting effect; format: in vivo; conditions: stress 25° C., 4 hours, drug once before stress
Method: as §1
According to the method by Takagi et al. [Takagi, K. et al., Chem. Pharm. Bull., 12, 465 (1964)], the effect on the ulcer in rats induced by stress due to restraint and immersing in water in wire cages (25° C., 4 hours) was examined. The drugs to be tested were administered once before loading the stress.

[7] = tested on: histamine-induced ulcer in rats; assay: Histamine-induced ulcer inhibiting effect (Table 1); format: in vivo, Wister strain male rats; conditions: histamine dihydrochloride 300 mg/kg i.p., 4 hours; for Ulcer coefficient (total surface area of ulcer lesion): mean ± S.E., control 28.4 ± 3.2
Method: Groups each consisting of 10 Wister strain male rats (120-130 g) were starved for 24 hours, and the drug to be tested were intravenously administered (i.v.). Immediately thereafter, according to the method by Bucher et al. [Bucher, F. et al., Beitr. Path. Anat. 81, 391 (1928)], 300 mg/kg of histamine dihydrochloride was administered intraperitoneally (i.p.). Four hours later, each animal was decapitated to bleed, and the stomach was removed. 6 ml of physiological saline was infused into the removed stomach, which was then dipped in 10% formalin for 10 minutes. Then, the stomach was incised along the greater curvature. The ulcer appeared on the stomach mucous membrane was observed on a stereoscopic microscope to measure the surface area of the ulcer lesion, and the total area was designated as the ulcer coefficient.

[8] = tested on: pylorus ligation ulcer in rats; assay: Pylorus ligation ulcer inhibiting effect; format: in vivo, Wister strain male rats; conditions: 1 mg/kg i.p., 18 hours after pylorus ligation, mean ± S.E., control 4.5 ± 0.3
Method: Groups each consisting of 10 Wister strain male rats were starved for 24 hours, and the pylorus was ligatured under etherized conditions. The peptide compound of this invention (Compound 25) was intraperitoneally administered. Eighteen hours later, the stomach was removed and cut open. The ulcer appeared on the rumen was evaluated using 6-ranked ulcer index according to the method by Narumi et al. [A. Narumi, et al., J. Takeda Res. Lab., 29, 85 (1970)].

[9] = tested on: acetic acid-induced ulcer in rats; assay: Acetic acid-induced (chronic) ulcer inhibiting effect; format: in vivo; conditions: once a day for 10 days
Method: The effect of the peptide compound of this invention on chronic ulcer was examined according to the method by Takagi et al. [Takagi, K. et al., Japan J. Pharmacol., 19, 418 (1970)]. That is, 0.025 ml of 30% acetic acid was injected to the stomach serous membrane in rats, and for 10 days thereafter, the peptide compound of this invention (Compound 25) was intravenously administered once a day. Gefarnate and secretin both employed as the comparative drugs were similarly intramuscularly administered (i.m.).

[10] = tested on: Collagen Induced Hemagglutination; assay: Antithrombotic effect (I): collagen induced hemagglutination in plasma of dosed rats; format: in vivo, Wister strain male rats; conditions: collagen as coagulant; for Transmittance: mean ± S.E., control 52.5 ± 7.1
Method: (§2) Groups each consisting of 10 Wister strain male rats (120-160 g) were administered with the drug to be tested through the tail vein, and 5 minutes later, blood was taken under etherized conditions at a ratio to 3.8% aqueous sodium citrate solution of 1/10. This was centrifugally separated into platelet rich plasma (PRP) and platelet poor plasma (PPP). Using ADP or collagen as the coagulant, the reaction was effected at 37° C. The transmittance of the plasma with the coagulant and drug to be tested was measured using PRP and PPP as the standards, compared with the control, and the percent inhibition was calculated. As the comparative drug, ticlopidine was orally administered.

[11] = tested on: ADP Induced Hemagglutination; assay: Antithrombotic effect (I): ADP induced hemagglutination in plasma of dosed rats; format: in vivo, Wister strain male rats; conditions: ADP as coagulant; for Transmittance: mean ± S.E., control 62.9 ± 6.3
Method: as §2

[12] = 1 mg/kg i.v. one minute before circulation
[13] = 10 mg/kg i.v. one minute before circulation
[14] = 10 mg/kg via tail vein, blood taken 5 minutes later

CC(=O)Oc1ccccc1C(=O)O [Aspirin]
Thrombosis wet weight ([1]; 100 mg/kg orally): 22.3 ± 3.2 mg
inhibition at 100 mg/kg ([1]; Rattus norvegicus, po, 20 min, 100 mg/kg orally, read-out: Inhibition rate (%)): 41.5%

CN1[C@@H]2CC[C@H]1C[C@@H](OC(=O)C(CO)c1ccccc1)C2 (stereo partly drawn) [Atropine, atropine]
ID50 (C) histamine-induced ulcer [2]: 0.35 mg/kg, i.v.
ID50 (B) aspirin-induced ulcer [3]: 0.52 mg/kg, i.v.
ID50 (D) cortisone-induced ulcer [4]: 0.25 mg/kg, i.v.
ID50 (E) cysteamine-induced duodenal ulcer [5]: 0.35 mg/kg, i.v.
ID50 (A) restraint and water immersion stress ulcer [6]: 0.4 mg/kg, i.v.

CN/C(=N/CCSCc1nc[nH]c1C)NC#N [Cimetidine, cimetidine]
Ulcer coefficient (total surface area of ulcer lesion) ([7]; 25 mg/kg i.v.): 10.9 ± 1.9
inhibition at 25 mg/kg ([7]; Rattus norvegicus, 25 mg/kg i.v., read-out: Inhibition rate (%)): 61.6%
ID50 (C) histamine-induced ulcer [2]: 17.0 mg/kg, i.v.
ID50 (B) aspirin-induced ulcer [3]: 39.0 mg/kg, i.v.
ID50 (D) cortisone-induced ulcer [4]: 28.0 mg/kg, i.v.
ID50 (E) cysteamine-induced duodenal ulcer [5]: 26.0 mg/kg, i.v.
ID50 (A) restraint and water immersion stress ulcer [6]: 37.0 mg/kg, i.v.

NCCCC[C@H](NC(=O)[C@H](Cc1c[nH]cn1)NC(=O)[C@H](CO)NC(=O)CN)C(=O)O [Compound 25, Gly-Ser-His-Lys.CH3 COOH.H2 O] (H-GSHK-OH)
Inhibition rate (%) ([7]; 20 mg/kg i.v.): 79.9%
Ulcer coefficient (total surface area of ulcer lesion) ([7]; 20 mg/kg i.v.): 5.7 ± 2.6
Ulcer index (6-ranked) [8]: 3.1 ± 0.5
ID50 (C) histamine-induced ulcer [2]: 6.0 mg/kg, i.v.
ID50 (B) aspirin-induced ulcer [3]: 5.0 mg/kg, i.v.
ID50 (D) cortisone-induced ulcer [4]: 1.85 mg/kg, i.v.
ID50 (E) cysteamine-induced duodenal ulcer [5]: 5.0 mg/kg, i.v.
ID50 (A) restraint and water immersion stress ulcer [6]: 4.2 mg/kg, i.v.
ID50 acetic acid-induced ulcer ([9]; intravenous): 1.0 mg/kg, i.v.
Inhibition rate (%) [1, 12]: 27.3%
Thrombosis wet weight [1, 12]: 27.7 ± 4.0 mg
Inhibition rate (%) [1, 13]: 44.1%
Thrombosis wet weight [1, 13]: 21.3 ± 3.3 mg
Transmittance ([10]; 10.0 mg/kg via tail vein, 10 mg/kg): 14.8 ± 4.9
Inhibition rate (%) ([10]; 10 mg/kg): 71.8%

NCCCC[C@H](NC(=O)[C@H](Cc1c[nH]cn1)NC(=O)[C@H](CO)NC(=O)[C@@H]1CCC(=O)N1)C(=O)O [Compound 28, (pyr)Glu-Ser-His-Lys] ([pGlu]SHK-OH)
Inhibition rate (%) ([7]; 20 mg/kg i.v.): 57.0%
Ulcer coefficient (total surface area of ulcer lesion) ([7]; 20 mg/kg i.v.): 12.2 ± 2.6
Inhibition rate (%) [11, 14]: 57.9%
Transmittance [11, 14]: 26.5 ± 7.2

CC(C)=CCC/C(C)=C/CC/C(C)=C/CCC(=O)OC/C=C(\C)CCC=C(C)C [Gefarnate]
ID50 acetic acid-induced ulcer ([9]; intramuscular): 250 mg/kg, i.m.

Clc1ccccc1CN1CCc2sccc2C1 [Thichlopidine, ticlopidine]
Transmittance ([11]; 100 mg/kg orally): 41.6 ± 10.4
inhibition at 100 mg/kg ([11]; Rattus norvegicus, po, 100 mg/kg orally, read-out: Inhibition Rate (%)): 33.9%
inhibition at 100 mg/kg ([10]; Rattus norvegicus, po, 100 mg/kg orally, read-out: Inhibition rate (%)): 34.1%
Transmittance ([10]; 100 mg/kg orally): 34.6 ± 10.8

secretin
ID50 acetic acid-induced ulcer ([9]; intramuscular): > 100 U/kg, i.m.
